In patent US20060069132A1, “Azolecarboxamide herbicides” (priority 2004, published 2006):

How the values were obtained:
[1] = test system: Surinam grass; assay: Test B pre-/postemergence herbicide test; format: in vivo, Urochloa decumbens; conditions: for Surinam Grass plant response rating: scale 0 (no effect) to 100 (complete control)
Outline: (§1)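 Response was scored visually 13 to 15 days after treatment against untreated greenhouse controls, 0 meaning no effect and 100 complete control. Formulations (solvent mixture plus surfactant) went onto soil after planting, onto foliage of 1- to 4-leaf plants, and onto 2-leaf plants in a flooded paddy set including rice and barnyardgrass.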

[2] = test system: ducksalad; assay: Test B flooded paddy test; format: in vivo, Heteranthera limosa; conditions: 1000 g ai/ha, scale 0 to 100 (0 no effect, 100 complete control)
Outline: (§2)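 Formulated test chemicals went onto postemergence plants measuring 2 to 18 cm, at one to four leaves. For the paddy assay, species had reached two leaves. Scoring took place 13–15 days later by eye, relative to untreated plants, using 0 for no effect up to 100 for full control.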

[3] = test system: blackgrass; assay: Test B postemergence herbicide test; format: in vivo, Alopecurus myosuroides; conditions: scale 0 (no effect) to 100 (complete control)
Outline: as §2

[4] = test system: rice; assay: Test B flooded paddy test; format: in vivo, Oryza sativa; conditions: 1000 g ai/ha, scale 0 to 100 (0 no effect, 100 complete control)
Outline: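 Postemergence plants were sprayed with formulated test chemicals at 2 to 18 cm height (1- to 4-leaf stage); paddy species were grown to the 2-leaf stage. After 13 to 15 days in a greenhouse, injury was rated visually against untreated controls on a 0–100 scale (0 = no effect, 100 = complete control).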

[5] = test system: corn; assay: Test B pre-/postemergence herbicide test; format: in vivo, Zea mays; conditions: for Corn plant response rating: scale 0 (no effect) to 100 (complete control)
Outline: as §1

[6] = test system: small flower umbrella sedge; assay: Test B flooded paddy test; format: in vivo, Cyperus difformis; conditions: 1000 g ai/ha, scale 0 to 100 (0 no effect, 100 complete control)
Outline: as §2

[7] = test system: cocklebur; assay: Test B pre-/postemergence herbicide test; format: in vivo, Xanthium strumarium; conditions: for Cocklebur plant response rating: scale 0 (no effect) to 100 (complete control)
Outline: (§3)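 Plants compared with untreated controls 13–15 days post-treatment and given a visual 0–100 injury score. Applications: preemergence to seeds; postemergence at 1- to 4-leaf (2–18 cm); paddy species flooded, 2-leaf stage. Vehicle non-phytotoxic, surfactant included.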

[8] = test system: barnyardgrass; assay: Test B pre-/postemergence herbicide test; format: in vivo, Echinochloa crus-galli; conditions: for Barnyardgrass plant response rating: scale 0 (no effect) to 100 (complete control)
Outline: as §3

[9] = test system: barnyardgrass; assay: Test B flooded paddy test; format: in vivo, Echinochloa crus-galli; conditions: 1000 g ai/ha, scale 0 to 100 (0 no effect, 100 complete control)
Outline: as §2

[10] = test system: wheat; assay: Test B postemergence herbicide test; format: in vivo, Triticum aestivum; parameters: key to Wheat plant response rating: 0 = no effect, 100 = complete control
Outline: (§4)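 Visual ratings, 0 (no effect) to 100 (complete control), made versus controls after 13–15 d greenhouse. Paddy plants treated at 2-leaf stage; postemergence plants at 1- to 4-leaf stage, 2–18 cm tall.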

[11] = test system: wild oat; assay: Test B postemergence herbicide test; format: in vivo, Avena fatua; conditions: scale 0 (no effect) to 100 (complete control)
Outline: as §4

[12] = test system: large crabgrass; assay: Test B pre-/postemergence herbicide test; format: in vivo, Digitaria sanguinalis; conditions: for Crabgrass, Large plant response rating: scale 0 (no effect) to 100 (complete control)
Outline: as §1

[13] = test system: morningglory; assay: Test B pre-/postemergence herbicide test; format: in vivo, Ipomoea coccinea; conditions: for Morningglory plant response rating: scale 0 (no effect) to 100 (complete control)
Outline: as §3

[14] = test system: pigweed; assay: Test B pre-/postemergence herbicide test; format: in vivo, Amaranthus retroflexus; conditions: for Pigweed plant response rating: scale 0 (no effect) to 100 (complete control)
Outline: as §1

[15] = test system: velvetleaf; assay: Test B pre-/postemergence herbicide test; format: in vivo, Abutilon theophrasti; conditions: for Velvetleaf plant response rating: scale 0 (no effect) to 100 (complete control)
Outline: as §1

[16] = test system: lambsquarters; assay: Test B pre-/postemergence herbicide test; format: in vivo, Chenopodium album; conditions: for Lambsquarters plant response rating: scale 0 (no effect) to 100 (complete control)
Outline: as §1

[17] = 125 g ai/ha, 0 is no effect, 100 is complete control, preemergence
[18] = 125 g ai/ha, visual rating, postemergence
[19] = 125 g ai/ha, 0 = no effect, 100 = complete control, preemergence
[20] = 500 g ai/ha, visual rating 0-100, 0 no effect, 100 complete control, preemergence
[21] = postemergence, 125 g ai/ha, visual rating
[22] = postemergence, 500 g ai/ha, visual rating

SMILES: Cc1nn(C(C)(C)C)nc1C(=O)Nc1cccc(C(=O)N2CC=CC2)c1 [Compound 393]
- Plant response rating (0 to 100 scale), Surinam Grass [1, 17]: 80
- Surinam Grass plant response rating [1, 18]: 10
- Surinam Grass plant response rating ([1]; Postemergence, 500 g ai/ha): 10
- Ducksalad plant response rating [2]: 90
- Blackgrass plant response rating [3, 18]: 20
- Blackgrass plant response rating ([3]; Postemergence, 500 g ai/ha): 40
- Rice plant response rating [4]: 80
- Plant response rating (0 to 100 scale), Corn [5, 17]: 40
- Corn plant response rating [5, 18]: 0
- Corn plant response rating ([5]; Postemergence, 500 g ai/ha): 20
- Sedge, Umbrella plant response rating [6]: 90
- Plant response rating (0 to 100 scale), Cocklebur [7, 17]: 30
- Cocklebur plant response rating [7, 18]: 30
- Cocklebur plant response rating ([7]; Postemergence, 500 g ai/ha): 60
- Plant response rating (0 to 100 scale), Barnyardgrass [8, 17]: 90
- Barnyardgrass plant response rating [8, 18]: 10
- Barnyardgrass plant response rating ([8]; Postemergence, 500 g ai/ha): 20
- Barnyardgrass plant response rating [9]: 90
- Wheat plant response rating ([10]; 125 g ai/ha, visual rating, scale 0 (no effect) to 100 (complete control), postemergence): 0
- Wheat plant response rating ([10]; 500 g ai/ha, scale 0 to 100, 0 no effect, 100 complete control, preemergence): 100
- Wheat plant response rating ([10]; Postemergence, 500 g ai/ha, scale 0 (no effect) to 100 (complete control)): 10
- Oat, Wild plant response rating [11, 18]: 10
- Oat, Wild plant response rating ([11]; Postemergence, 500 g ai/ha): 30
- Plant response rating (0 to 100 scale), Crabgrass, Large [12, 17]: 90
- Crabgrass, Large plant response rating [12, 18]: 10
- Crabgrass, Large plant response rating ([12]; Postemergence, 500 g ai/ha): 20
- Plant response rating (0 to 100 scale), Morningglory [13, 17]: 20
- Morningglory plant response rating [13, 18]: 30
- Morningglory plant response rating ([13]; Postemergence, 500 g ai/ha): 50
- Plant response rating (0 to 100 scale), Pigweed [14, 17]: 100
- Pigweed plant response rating [14, 18]: 40
- Pigweed plant response rating ([14]; Postemergence, 500 g ai/ha): 50
- Plant response rating (0 to 100 scale), Velvetleaf [15, 17]: 50
- Velvetleaf plant response rating [15, 18]: 40
- Velvetleaf plant response rating ([15]; Postemergence, 500 g ai/ha): 60
- Plant response rating (0 to 100 scale), Lambsquarters [16, 17]: 90
- Lambsquarters plant response rating [16, 18]: 60
- Lambsquarters plant response rating ([16]; Postemergence, 500 g ai/ha): 80

SMILES: CC(=NO)c1cccc(NC(=O)c2sc(C(C)(C)C)nc2C)c1 [Compound 195]
- Surinam Grass plant response rating (0 to 100 scale) [1, 19]: 10
- Plant response rating, Surinam Grass [1, 20]: 30
- Surinam Grass plant response rating [1, 21]: 10
- Surinam Grass plant response rating [1, 22]: 30
- Ducksalad plant response rating ([2]; visual rating, 13 to 15 days): 40
- Blackgrass plant response rating [3, 21]: 0
- Blackgrass plant response rating [3, 22]: 10
- Rice plant response rating ([4]; visual rating, 13 to 15 days): 30
- Corn plant response rating (0 to 100 scale) [5, 19]: 0
- Plant response rating, Corn [5, 20]: 0
- Corn plant response rating [5, 21]: 20
- Corn plant response rating [5, 22]: 30
- Sedge, Umbrella plant response rating ([6]; visual rating, 13 to 15 days): 50
- Cocklebur plant response rating (0 to 100 scale) [7, 19]: 0
- Plant response rating, Cocklebur [7, 20]: 0
- Cocklebur plant response rating [7, 21]: 30
- Cocklebur plant response rating [7, 22]: 60
- Barnyardgrass plant response rating (0 to 100 scale) [8, 19]: 40
- Plant response rating, Barnyardgrass [8, 20]: 90
- Barnyardgrass plant response rating [8, 21]: 40
- Barnyardgrass plant response rating [8, 22]: 90
- Barnyardgrass plant response rating ([9]; visual rating, 13 to 15 days): 60
- Wheat plant response rating ([10]; postemergence, 125 g ai/ha, visual rating, scale 0 (no effect) to 100 (complete control)): 10
- Wheat plant response rating ([10]; postemergence, 500 g ai/ha, visual rating, scale 0 (no effect) to 100 (complete control)): 20
- Oat, Wild plant response rating [11, 21]: 10
- Oat, Wild plant response rating [11, 22]: 20
- Crabgrass, Large plant response rating (0 to 100 scale) [12, 19]: 80
- Plant response rating, Crabgrass, Large [12, 20]: 100
- Crabgrass, Large plant response rating [12, 21]: 20
- Crabgrass, Large plant response rating [12, 22]: 50
- Morningglory plant response rating (0 to 100 scale) [13, 19]: 10
- Plant response rating, Morningglory [13, 20]: 40
- Morningglory plant response rating [13, 21]: 0
- Morningglory plant response rating [13, 22]: 60
- Pigweed plant response rating (0 to 100 scale) [14, 19]: 90
- Plant response rating, Pigweed [14, 20]: 90
- Pigweed plant response rating [14, 21]: 70
- Pigweed plant response rating [14, 22]: 80
- Velvetleaf plant response rating (0 to 100 scale) [15, 19]: 10
- Plant response rating, Velvetleaf [15, 20]: 20
- Velvetleaf plant response rating [15, 21]: 20
- Velvetleaf plant response rating [15, 22]: 40
- Lambsquarters plant response rating (0 to 100 scale) [16, 19]: 0
- Plant response rating, Lambsquarters [16, 20]: 80
- Lambsquarters plant response rating [16, 21]: 0
- Lambsquarters plant response rating [16, 22]: 60
